According to ChEMBL document CHEMBL1147642, “Elimination of antibacterial activities of non-peptide luteinizing hormone-releasing hormone (LHRH) antagonists derived from erythromycin A” (Bioorg Med Chem Lett, 2004):
Converted amounts (≈) assume the structure as drawn.

Columns and labels:
Streptococcus equinus = experiment: Minimum inhibitory activity against Streptococcus bovis A-5169; format: functional
Streptococcus agalactiae = experiment: Minimum inhibitory activity against Streptococcus agalactiae CMX 508; format: functional
[1] = tested on: Staphylococcus epidermidis; experiment: Minimum inhibitory activity against Staphylococcus epidermidis 3519; format: functional
Enterococcus faecium = experiment: Minimum inhibitory activity against Enterococcus faecium ATCC 8043; format: functional
Staphylococcus aureus = experiment: Minimum inhibitory activity against Staphylococcus aureus ATCC 6538P; format: functional
Streptococcus pyogenes = experiment: Minimum inhibitory activity against Streptococcus pyogenes EES61; format: functional
Micrococcus luteus = experiment: Minimum inhibitory activity against Micrococcus luteus ATCC 9341; format: functional
[2] = target: T1, Gonadotropin-releasing hormone receptor (Homo sapiens, UniProt P30968); experiment: Binding affinity against human luteinizing releasing hormone receptor cloned in CHO cells; format: cell-based
T1 sequence (P30968 whole entry): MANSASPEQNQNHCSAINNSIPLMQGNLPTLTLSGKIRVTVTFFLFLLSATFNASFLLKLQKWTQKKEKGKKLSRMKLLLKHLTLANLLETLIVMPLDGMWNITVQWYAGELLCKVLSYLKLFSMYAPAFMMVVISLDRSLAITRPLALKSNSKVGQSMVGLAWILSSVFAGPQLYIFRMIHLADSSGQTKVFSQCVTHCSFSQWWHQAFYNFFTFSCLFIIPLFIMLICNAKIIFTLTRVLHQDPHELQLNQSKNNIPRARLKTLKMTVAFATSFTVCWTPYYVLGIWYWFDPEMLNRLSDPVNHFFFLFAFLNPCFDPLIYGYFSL

Row | SMILES | MIC (Streptococcus equinus) | MIC (Streptococcus agalactiae) | MIC [1] | MIC (Enterococcus faecium) | MIC (Staphylococcus aureus) | MIC (Streptococcus pyogenes) | MIC (Micrococcus luteus) | Ki [2]
1 | CC[C@H]1OC(=O)[C@H](C)[C@@H](OC2C[C@@](C)(OC)[C@@H](O)[C@H](C)O2)[C@H](C)[C@@H](OC2O[C@H](C)C[C@H](N(C)C(C)C)[C@H]2O)[C@@](C)(OC)C[C@@H](C)C(=O)[C@H](C)[C@H]2N(CCc3ccc(Cl)cc3)C(=O)O[C@]12C (some centres undefined) | 0.2 µg/mL (≈ 0.213 µM) | 0.02 µg/mL (≈ 0.0213 µM) | 1.56 µg/mL (≈ 1.66 µM) | 0.2 µg/mL (≈ 0.213 µM) | 1.56 µg/mL (≈ 1.66 µM) |  |  | 
2 | CC[C@H]1OC(=O)[C@H](C)[C@@H](OC(=O)N2C(=O)OC[C@@H]2C)[C@H](C)[C@@H](OC2O[C@H](C)C[C@H](N(CC3CC3)CC3CC3)[C@H]2O)[C@@](C)(OC)C[C@@H](C)C(=O)[C@H](C)[C@H]2N(CCc3ccc(Cl)c(Cl)c3)C(=O)O[C@]12C (some centres undefined) | 50 µg/mL (≈ 50.2 µM) | 100 µg/mL (≈ 100 µM) | > 100 µg/mL | > 100 µg/mL | > 100 µg/mL | 50 µg/mL (≈ 50.2 µM) | 100 µg/mL (≈ 100 µM) | 1.29 nM
3 | CC[C@H]1OC(=O)[C@H](C)[C@@H](OC(=O)N2C(=O)OC[C@@H]2C)[C@H](C)[C@@H](OC2O[C@H](C)C[C@H](N(C)C(C)C)[C@H]2O)[C@@](C)(OC)C[C@@H](C)C(=O)[C@H](C)[C@H]2N(CCc3ccc(Cl)cc3)C(=O)O[C@]12C (some centres undefined) | 0.1 µg/mL (≈ 0.11 µM) |  | 25 µg/mL (≈ 27.5 µM) | 0.78 µg/mL (≈ 0.859 µM) | 25 µg/mL (≈ 27.5 µM) | 0.02 µg/mL (≈ 0.022 µM) | 0.78 µg/mL (≈ 0.859 µM) | 
4 | CC[C@H]1OC(=O)[C@H](C)[C@@H](OC(=O)N2C(=O)OC[C@@H]2C)[C@H](C)[C@@H](OC2O[C@H](C)C[C@H](N(C)CC3CC3)[C@H]2O)[C@@](C)(OC)C[C@@H](C)C(=O)[C@H](C)[C@H]2N(CCc3ccc(Cl)cc3)C(=O)O[C@]12C (some centres undefined) | 0.78 µg/mL (≈ 0.847 µM) | 1.56 µg/mL (≈ 1.69 µM) | > 100 µg/mL | 3.1 µg/mL (≈ 3.37 µM) | 100 µg/mL (≈ 109 µM) | 0.78 µg/mL (≈ 0.847 µM) | 12.5 µg/mL (≈ 13.6 µM) | 18.6 nM
5 | CC[C@H]1OC(=O)[C@H](C)[C@@H](OC(=O)N2C(=O)OC[C@@H]2C)[C@H](C)[C@@H](OC2O[C@H](C)C[C@H](N(C)C3CCCC3)[C@H]2O)[C@@](C)(OC)C[C@@H](C)C(=O)[C@H](C)[C@H]2N(CCc3ccc(Cl)cc3)C(=O)O[C@]12C (some centres undefined) | 3.1 µg/mL (≈ 3.32 µM) | 3.1 µg/mL (≈ 3.32 µM) | > 100 µg/mL | 6.2 µg/mL (≈ 6.63 µM) | > 100 µg/mL | 3.1 µg/mL (≈ 3.32 µM) | 12.5 µg/mL (≈ 13.4 µM) | 3.89 nM
6 | CC[C@H]1OC(=O)[C@H](C)[C@@H](OC(=O)N2C(=O)OC[C@@H]2C)[C@H](C)[C@@H](O[C@@H]2O[C@H](C)C[C@H](N(C)CC3CC3)[C@H]2O)[C@@](C)(OC)C[C@@H](C)C(=O)[C@H](C)[C@H]2N(CCc3ccc(Cl)c(Cl)c3)C(=O)O[C@]12C | 0.78 µg/mL (≈ 0.817 µM) | 0.78 µg/mL (≈ 0.817 µM) | > 100 µg/mL | 3.1 µg/mL (≈ 3.25 µM) | > 100 µg/mL | 0.78 µg/mL (≈ 0.817 µM) | 3.1 µg/mL (≈ 3.25 µM) | 
7 | CC[C@H]1OC(=O)[C@H](C)[C@@H](OC2C[C@@](C)(OC)[C@@H](O)[C@H](C)O2)[C@H](C)[C@@H](OC2O[C@H](C)C[C@H](N(C)C3CCCCC3)[C@H]2O)[C@@](C)(OC)C[C@@H](C)C(=O)[C@H](C)[C@H]2N(CCc3ccc(Cl)cc3)C(=O)O[C@]12C (some centres undefined) | 3.1 µg/mL (≈ 3.16 µM) | 12.5 µg/mL (≈ 12.8 µM) | > 100 µg/mL | 25 µg/mL (≈ 25.5 µM) | > 100 µg/mL | 0.78 µg/mL (≈ 0.796 µM) | 12.5 µg/mL (≈ 12.8 µM) | 204 nM
8 | CC[C@H]1OC(=O)[C@H](C)[C@@H](OC2C[C@@](C)(OC)[C@@H](O)[C@H](C)O2)[C@H](C)[C@@H](OC2O[C@H](C)C[C@H](N(C)C)[C@H]2O)[C@@](C)(OC)C[C@@H](C)C(=O)[C@H](C)[C@H]2N(CCc3ccc(Cl)cc3)C(=O)O[C@]12C (some centres undefined) | 0.2 µg/mL (≈ 0.219 µM) | 0.2 µg/mL (≈ 0.219 µM) | 0.39 µg/mL (≈ 0.428 µM) | 0.1 µg/mL (≈ 0.11 µM) | 0.39 µg/mL (≈ 0.428 µM) |  | 0.05 µg/mL (≈ 0.0549 µM) | 191 nM
9 | CC[C@H]1OC(=O)[C@H](C)[C@@H](OC2C[C@@](C)(OC)[C@@H](O)[C@H](C)O2)[C@H](C)[C@@H](OC2O[C@H](C)C[C@H](N(C)CC3CC3)[C@H]2O)[C@@](C)(OC)C[C@@H](C)C(=O)[C@H](C)[C@H]2N(CCc3ccc(Cl)cc3)C(=O)O[C@]12C (some centres undefined) |  | 1.56 µg/mL (≈ 1.64 µM) | > 100 µg/mL | 1.56 µg/mL (≈ 1.64 µM) | > 100 µg/mL |  |  | 13.2 nM
10 | CCC(C)N(CC1CC1)[C@H]1C[C@@H](C)OC(O[C@@H]2[C@@H](C)[C@H](OC3C[C@@](C)(OC)[C@@H](O)[C@H](C)O3)[C@@H](C)C(=O)O[C@H](CC)[C@@]3(C)OC(=O)N(CCc4ccc(Cl)cc4)[C@@H]3[C@@H](C)C(=O)[C@H](C)C[C@]2(C)OC)[C@@H]1O (some centres undefined) | > 100 µg/mL | > 100 µg/mL | > 100 µg/mL | > 100 µg/mL | > 100 µg/mL | > 100 µg/mL | > 100 µg/mL | 27.5 nM
11 | CC[C@H]1OC(=O)[C@H](C)[C@@H](OC2C[C@@](C)(OC)[C@@H](O)[C@H](C)O2)[C@H](C)[C@@H](OC2O[C@H](C)C[C@H](N(C)C3CCCC3)[C@H]2O)[C@@](C)(OC)C[C@@H](C)C(=O)[C@H](C)[C@H]2N(CCc3ccc(Cl)cc3)C(=O)O[C@]12C (some centres undefined) | 0.78 µg/mL (≈ 0.808 µM) | 0.78 µg/mL (≈ 0.808 µM) | 50 µg/mL (≈ 51.8 µM) | 1.56 µg/mL (≈ 1.62 µM) | 25 µg/mL (≈ 25.9 µM) | 0.78 µg/mL (≈ 0.808 µM) | 1.56 µg/mL (≈ 1.62 µM) | 7.59 nM
12 | CC[C@H]1OC(=O)[C@H](C)[C@@H](OC2C[C@@](C)(OC)[C@@H](O)[C@H](C)O2)[C@H](C)[C@@H](OC2O[C@H](C)C[C@H](N(CC3CC3)CC3CC3)[C@H]2O)[C@@](C)(OC)C[C@@H](C)C(=O)[C@H](C)[C@H]2N(CCc3ccc(F)c(Cl)c3)C(=O)O[C@]12C (some centres undefined) | 25 µg/mL (≈ 24.8 µM) | 50 µg/mL (≈ 49.5 µM) | > 100 µg/mL | 25 µg/mL (≈ 24.8 µM) | > 100 µg/mL | 25 µg/mL (≈ 24.8 µM) | 25 µg/mL (≈ 24.8 µM) | 0.851 nM
13 | CC[C@H]1OC(=O)[C@H](C)[C@@H](OC(=O)N2C(=O)OC[C@@H]2C)[C@H](C)[C@@H](OC2O[C@H](C)C[C@H](N(C)C3CCCCC3)[C@H]2O)[C@@](C)(OC)C[C@@H](C)C(=O)[C@H](C)[C@H]2N(CCc3ccc(Cl)c(Cl)c3)C(=O)O[C@]12C (some centres undefined) | 6.2 µg/mL (≈ 6.31 µM) | 6.2 µg/mL (≈ 6.31 µM) | > 100 µg/mL | > 100 µg/mL | > 100 µg/mL | 6.2 µg/mL (≈ 6.31 µM) | > 100 µg/mL | 7.24 nM
14 | CC[C@H]1OC(=O)[C@H](C)[C@@H](OC2C[C@@](C)(OC)[C@@H](O)[C@H](C)O2)[C@H](C)[C@@H](OC2O[C@H](C)C[C@H](N(C)C3CCCC3)[C@H]2O)[C@@](C)(OC)C[C@@H](C)C(=O)[C@H](C)[C@H]2N(CCc3ccc(Cl)c(Cl)c3)C(=O)O[C@]12C (some centres undefined) | 3.1 µg/mL (≈ 3.1 µM) | 3.1 µg/mL (≈ 3.1 µM) | > 100 µg/mL | 3.1 µg/mL (≈ 3.1 µM) | > 100 µg/mL | 3.1 µg/mL (≈ 3.1 µM) | 3.1 µg/mL (≈ 3.1 µM) | 1.51 nM
15 | CC[C@H]1OC(=O)[C@H](C)[C@@H](OC(=O)N2C(=O)OC[C@@H]2C)[C@H](C)[C@@H](OC2O[C@H](C)C[C@H](N(C)CC3CC3)[C@H]2O)[C@@](C)(OC)C[C@@H](C)C(=O)[C@H](C)[C@H]2N(CCc3ccc(F)c(Cl)c3)C(=O)O[C@]12C (some centres undefined) | 0.39 µg/mL (≈ 0.416 µM) | 0.39 µg/mL (≈ 0.416 µM) | 50 µg/mL (≈ 53.3 µM) | 1.56 µg/mL (≈ 1.66 µM) | 100 µg/mL (≈ 107 µM) | 0.39 µg/mL (≈ 0.416 µM) | 1.56 µg/mL (≈ 1.66 µM) | 
16 | CC[C@H]1OC(=O)[C@H](C)[C@@H](OC2C[C@@](C)(OC)[C@@H](O)[C@H](C)O2)[C@H](C)[C@@H](OC2O[C@H](C)C[C@H](NC)[C@H]2O)[C@@](C)(OC)C[C@@H](C)C(=O)[C@H](C)[C@H]2N(CCc3ccc(Cl)cc3)C(=O)O[C@]12C (some centres undefined) | 0.2 µg/mL (≈ 0.223 µM) | 0.05 µg/mL (≈ 0.0557 µM) | 1.56 µg/mL (≈ 1.74 µM) | 0.39 µg/mL (≈ 0.435 µM) | 1.56 µg/mL (≈ 1.74 µM) | 0.1 µg/mL (≈ 0.111 µM) | 0.2 µg/mL (≈ 0.223 µM) | 79.4 nM
17 | CC[C@H]1OC(=O)[C@H](C)[C@@H](O[C@H]2C[C@@](C)(OC)[C@@H](O)[C@H](C)O2)[C@H](C)[C@@H](O[C@@H]2O[C@H](C)C[C@H](N(C)C)[C@H]2O)[C@](C)(O)C[C@@H](C)C(=O)[C@H](C)[C@@H](O)[C@]1(C)O [ERYTHROMYCIN] | 0.05 µg/mL (≈ 0.0681 µM) | 0.05 µg/mL (≈ 0.0681 µM) | 0.2 µg/mL (≈ 0.273 µM) | 0.05 µg/mL (≈ 0.0681 µM) | 0.2 µg/mL (≈ 0.273 µM) | 0.05 µg/mL (≈ 0.0681 µM) | 0.02 µg/mL (≈ 0.0273 µM) | 
18 | CC[C@H]1OC(=O)[C@H](C)[C@@H](O)[C@H](C)[C@@H](OC2O[C@H](C)C[C@H](N(C)C)[C@H]2O)[C@@](C)(OC)C[C@@H](C)C(=O)[C@H](C)[C@H]2N(CCc3ccc(Cl)cc3)C(=O)O[C@]12C (some centres undefined) |  | 0.02 µg/mL (≈ 0.0265 µM) | 12.5 µg/mL (≈ 16.6 µM) | 1.56 µg/mL (≈ 2.07 µM) | 12.5 µg/mL (≈ 16.6 µM) |  | 0.78 µg/mL (≈ 1.04 µM) | 
